{"source": "ChEMBL document CHEMBL4330132", "about": "“5-Keto-3-cyano-2,4-diaminothiophenes as selective maternal embryonic leucine zipper kinase inhibitors” (Bioorg Med Chem Lett, 2019)", "key": {"[1]": {"test_system": "eIF-2-alpha kinase GCN2 (Homo sapiens), Q9P2K8 [S808G]", "experiment": "Binding affinity to wild-type human partial length GCN2 kinase domain 2 (R585 to T1018 residues) S808G mutant expressed in bacterial expression system assessed as residual binding level at 1 uM by Kinomescan method relative to control"}, "[2]": {"test_system": "Receptor-type tyrosine-protein kinase FLT3 (Homo sapiens), P36888 [UNDEFINED MUTATION]", "experiment": "Binding affinity to human partial length FLT3 ITD mutant expressed in bacterial expression system assessed as residual binding level at 1 uM by Kinomescan method relative to control"}, "[3]": {"molecular_target": "Serine/threonine-protein kinase OSR1 (Homo sapiens) (UniProt O95747)", "experiment": "Binding affinity to wild-type human full length OSR1 (M1 to S527 residues) expressed in mammalian expression system assessed as residual binding level at 1 uM by Kinomescan method relative to control"}, "[4]": {"molecular_target": "SNF-related serine/threonine-protein kinase (Homo sapiens) (UniProt Q9NRH2)", "sequence (Q9NRH2 whole entry, the tested form may be a part)": "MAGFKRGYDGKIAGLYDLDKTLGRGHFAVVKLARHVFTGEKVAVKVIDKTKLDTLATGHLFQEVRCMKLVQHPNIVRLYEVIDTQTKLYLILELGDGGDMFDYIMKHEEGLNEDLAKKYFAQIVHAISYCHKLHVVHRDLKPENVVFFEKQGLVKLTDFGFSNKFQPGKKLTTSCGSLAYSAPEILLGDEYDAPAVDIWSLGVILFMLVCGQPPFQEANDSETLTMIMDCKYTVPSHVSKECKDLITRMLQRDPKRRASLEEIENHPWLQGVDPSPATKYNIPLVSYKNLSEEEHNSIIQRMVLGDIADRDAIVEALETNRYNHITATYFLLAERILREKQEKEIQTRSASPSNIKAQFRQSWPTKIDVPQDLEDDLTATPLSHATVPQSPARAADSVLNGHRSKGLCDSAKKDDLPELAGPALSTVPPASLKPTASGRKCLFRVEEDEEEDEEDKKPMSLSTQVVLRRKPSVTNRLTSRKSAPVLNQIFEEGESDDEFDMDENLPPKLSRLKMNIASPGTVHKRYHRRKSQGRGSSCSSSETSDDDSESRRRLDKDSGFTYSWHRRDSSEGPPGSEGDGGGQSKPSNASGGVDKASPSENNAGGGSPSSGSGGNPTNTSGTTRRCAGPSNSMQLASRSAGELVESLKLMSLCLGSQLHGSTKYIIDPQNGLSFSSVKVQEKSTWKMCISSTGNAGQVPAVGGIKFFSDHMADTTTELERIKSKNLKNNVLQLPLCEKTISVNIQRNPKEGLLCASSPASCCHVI", "experiment": "Binding affinity to wild-type human partial length SNRK (M1 to E339 residues) expressed in mammalian expression system assessed as residual binding level at 1 uM by Kinomescan method relative to control"}, "[5]": {"molecular_target": "Activated CDC42 kinase 1 (Homo sapiens) (UniProt Q07912)", "experiment": "Binding affinity to wild-type human partial length TNK2 (S159 to D474 residues) expressed in bacterial expression system assessed as residual binding level at 1 uM by Kinomescan method relative to control"}, "[6]": {"molecular_target": "Casein kinase I isoform alpha-like (Homo sapiens) (UniProt Q8N752)", "experiment": "Binding affinity to wild-type human full length CSNK1A1L (M1 to N337 residues) expressed in bacterial expression system assessed as residual binding level at 1 uM by Kinomescan method relative to control"}, "[7]": {"molecular_target": "Serine/threonine-protein kinase 32A (Homo sapiens) (UniProt Q8WU08)", "sequence (Q8WU08 whole entry, the tested form may be a part)": "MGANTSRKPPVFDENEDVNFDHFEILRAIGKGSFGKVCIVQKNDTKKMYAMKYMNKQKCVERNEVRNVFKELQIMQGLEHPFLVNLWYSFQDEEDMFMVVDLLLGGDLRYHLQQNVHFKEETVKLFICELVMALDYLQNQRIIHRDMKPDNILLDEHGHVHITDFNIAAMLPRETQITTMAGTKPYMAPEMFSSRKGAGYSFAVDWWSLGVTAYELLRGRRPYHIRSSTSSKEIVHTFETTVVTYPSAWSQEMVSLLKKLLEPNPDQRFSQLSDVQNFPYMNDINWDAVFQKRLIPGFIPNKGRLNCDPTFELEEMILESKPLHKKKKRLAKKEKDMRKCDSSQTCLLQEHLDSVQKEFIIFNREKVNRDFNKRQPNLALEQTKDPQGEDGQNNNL", "experiment": "Binding affinity to wild-type human full length YANK1 (M1 to L396 residues) expressed in mammalian expression system assessed as residual binding level at 1 uM by Kinomescan method relative to control"}, "[8]": {"molecular_target": "Interleukin-1 receptor-associated kinase 1 (Homo sapiens) (UniProt P51617)", "sequence (P51617 whole entry, looked up, the tested form may be a part)": "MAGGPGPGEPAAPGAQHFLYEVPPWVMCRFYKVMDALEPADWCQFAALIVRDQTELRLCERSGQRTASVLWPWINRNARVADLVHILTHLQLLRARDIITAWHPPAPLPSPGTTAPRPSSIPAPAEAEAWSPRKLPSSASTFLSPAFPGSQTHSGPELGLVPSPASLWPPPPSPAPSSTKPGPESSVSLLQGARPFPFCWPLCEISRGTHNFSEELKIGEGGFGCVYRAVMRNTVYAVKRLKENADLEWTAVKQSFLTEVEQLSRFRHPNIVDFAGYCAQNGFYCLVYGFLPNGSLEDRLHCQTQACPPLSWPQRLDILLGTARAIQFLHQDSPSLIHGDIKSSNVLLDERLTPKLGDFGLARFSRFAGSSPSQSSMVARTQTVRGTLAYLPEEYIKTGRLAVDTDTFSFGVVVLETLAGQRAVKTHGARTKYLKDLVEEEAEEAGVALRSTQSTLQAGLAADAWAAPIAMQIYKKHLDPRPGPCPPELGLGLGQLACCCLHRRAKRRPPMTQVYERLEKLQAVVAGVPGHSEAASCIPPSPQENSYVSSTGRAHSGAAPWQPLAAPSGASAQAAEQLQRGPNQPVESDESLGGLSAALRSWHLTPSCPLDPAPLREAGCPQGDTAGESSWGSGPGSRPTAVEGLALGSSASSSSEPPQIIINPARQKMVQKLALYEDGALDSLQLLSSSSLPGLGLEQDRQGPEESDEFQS", "experiment": "Binding affinity to wild-type human partial length IRAK1 (R194 to S712 residues) expressed in mammalian expression system assessed as residual binding level at 1 uM by Kinomescan method relative to control"}, "[9]": {"molecular_target": "Dual specificity testis-specific protein kinase 1 (Homo sapiens) (UniProt Q15569)", "sequence (Q15569 whole entry, looked up, the tested form may be a part)": "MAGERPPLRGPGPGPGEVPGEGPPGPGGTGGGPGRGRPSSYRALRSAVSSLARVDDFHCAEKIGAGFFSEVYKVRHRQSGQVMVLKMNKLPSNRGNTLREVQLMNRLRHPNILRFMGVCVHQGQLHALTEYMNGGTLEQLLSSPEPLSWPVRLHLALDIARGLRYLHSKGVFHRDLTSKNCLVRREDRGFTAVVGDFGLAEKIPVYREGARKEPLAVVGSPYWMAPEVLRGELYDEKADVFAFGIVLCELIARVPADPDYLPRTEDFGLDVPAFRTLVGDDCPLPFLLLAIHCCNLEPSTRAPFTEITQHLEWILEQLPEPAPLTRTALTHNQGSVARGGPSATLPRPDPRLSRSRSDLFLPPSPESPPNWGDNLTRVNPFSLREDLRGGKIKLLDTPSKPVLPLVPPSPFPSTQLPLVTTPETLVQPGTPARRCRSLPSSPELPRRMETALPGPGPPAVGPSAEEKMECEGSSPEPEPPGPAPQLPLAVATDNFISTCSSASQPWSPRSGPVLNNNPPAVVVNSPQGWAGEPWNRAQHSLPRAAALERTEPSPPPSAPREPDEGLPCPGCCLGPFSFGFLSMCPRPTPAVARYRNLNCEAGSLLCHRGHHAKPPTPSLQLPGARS", "experiment": "Binding affinity to wild-type human full length TESK1 (R37 to S626 residues) expressed in bacterial expression system assessed as residual binding level at 1 uM by Kinomescan method relative to control"}, "[10]": {"molecular_target": "G protein-coupled receptor kinase 4 (Homo sapiens) (UniProt P32298)", "sequence (P32298 whole entry, looked up, the tested form may be a part)": "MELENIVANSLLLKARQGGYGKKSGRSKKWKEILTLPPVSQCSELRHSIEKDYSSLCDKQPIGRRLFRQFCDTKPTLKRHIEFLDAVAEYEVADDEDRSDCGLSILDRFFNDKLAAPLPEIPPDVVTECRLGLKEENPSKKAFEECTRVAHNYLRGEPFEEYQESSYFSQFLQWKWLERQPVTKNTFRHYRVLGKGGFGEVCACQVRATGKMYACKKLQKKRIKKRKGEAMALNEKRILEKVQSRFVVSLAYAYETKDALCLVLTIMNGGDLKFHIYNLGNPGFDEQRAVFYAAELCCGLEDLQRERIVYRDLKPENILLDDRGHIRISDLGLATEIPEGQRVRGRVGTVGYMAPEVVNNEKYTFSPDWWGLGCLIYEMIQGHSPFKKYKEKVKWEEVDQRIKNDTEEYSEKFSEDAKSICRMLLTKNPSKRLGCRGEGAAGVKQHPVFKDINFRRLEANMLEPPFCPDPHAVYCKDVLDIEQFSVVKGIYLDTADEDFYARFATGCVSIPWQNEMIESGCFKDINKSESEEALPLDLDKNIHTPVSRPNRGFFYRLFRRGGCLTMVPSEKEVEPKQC", "experiment": "Binding affinity to wild-type human full length GRK4 (M1 to C578 residues) expressed in bacterial expression system assessed as residual binding level at 1 uM by Kinomescan method relative to control"}, "[11]": {"molecular_target": "Serine/threonine-protein kinase MARK1 (Homo sapiens) (UniProt Q9P0L2)", "experiment": "Binding affinity to wild-type human partial length MARK1 (Q30 to T341 residues) expressed in bacterial expression system assessed as residual binding level at 1 uM by Kinomescan method relative to control"}, "[12]": {"molecular_target": "Serine/threonine-protein kinase 17B (Homo sapiens) (UniProt O94768)", "experiment": "Binding affinity to wild-type human full length DRAK2 (M1 to C372 residues) expressed in bacterial expression system assessed as residual binding level at 1 uM by Kinomescan method relative to control"}, "[13]": {"molecular_target": "Serine/threonine-protein kinase Nek7 (Homo sapiens) (UniProt Q8TDX7)", "experiment": "Binding affinity to wild-type human full length NEK7 (M1 to S302 residues) expressed in bacterial expression system assessed as residual binding level at 1 uM by Kinomescan method relative to control"}, "[14]": {"molecular_target": "Bone morphogenetic protein receptor type-2 (Homo sapiens) (UniProt Q13873)", "experiment": "Binding affinity to wild-type human partial length BMPR2 (R179 to Q526 residues) expressed in mammalian expression system assessed as residual binding level at 1 uM by Kinomescan method relative to control"}, "[15]": {"molecular_target": "TGF-beta receptor type-1 (Homo sapiens) (UniProt P36897)", "experiment": "Binding affinity to wild-type human partial length TGFBR1 (D179 to M503 residues) expressed in bacterial expression system assessed as residual binding level at 1 uM by Kinomescan method relative to control"}, "[16]": {"molecular_target": "Discoidin domain-containing receptor 2 (Homo sapiens) (UniProt Q16832)", "experiment": "Binding affinity to wild-type human partial length DDR2 (V555 to E855 residues) expressed in mammalian expression system assessed as residual binding level at 1 uM by Kinomescan method relative to control"}, "[17]": {"test_system": "Epidermal growth factor receptor (Homo sapiens), P00533 [UNDEFINED MUTATION]", "sequence (P00533 whole entry, looked up, stated change not applied)": "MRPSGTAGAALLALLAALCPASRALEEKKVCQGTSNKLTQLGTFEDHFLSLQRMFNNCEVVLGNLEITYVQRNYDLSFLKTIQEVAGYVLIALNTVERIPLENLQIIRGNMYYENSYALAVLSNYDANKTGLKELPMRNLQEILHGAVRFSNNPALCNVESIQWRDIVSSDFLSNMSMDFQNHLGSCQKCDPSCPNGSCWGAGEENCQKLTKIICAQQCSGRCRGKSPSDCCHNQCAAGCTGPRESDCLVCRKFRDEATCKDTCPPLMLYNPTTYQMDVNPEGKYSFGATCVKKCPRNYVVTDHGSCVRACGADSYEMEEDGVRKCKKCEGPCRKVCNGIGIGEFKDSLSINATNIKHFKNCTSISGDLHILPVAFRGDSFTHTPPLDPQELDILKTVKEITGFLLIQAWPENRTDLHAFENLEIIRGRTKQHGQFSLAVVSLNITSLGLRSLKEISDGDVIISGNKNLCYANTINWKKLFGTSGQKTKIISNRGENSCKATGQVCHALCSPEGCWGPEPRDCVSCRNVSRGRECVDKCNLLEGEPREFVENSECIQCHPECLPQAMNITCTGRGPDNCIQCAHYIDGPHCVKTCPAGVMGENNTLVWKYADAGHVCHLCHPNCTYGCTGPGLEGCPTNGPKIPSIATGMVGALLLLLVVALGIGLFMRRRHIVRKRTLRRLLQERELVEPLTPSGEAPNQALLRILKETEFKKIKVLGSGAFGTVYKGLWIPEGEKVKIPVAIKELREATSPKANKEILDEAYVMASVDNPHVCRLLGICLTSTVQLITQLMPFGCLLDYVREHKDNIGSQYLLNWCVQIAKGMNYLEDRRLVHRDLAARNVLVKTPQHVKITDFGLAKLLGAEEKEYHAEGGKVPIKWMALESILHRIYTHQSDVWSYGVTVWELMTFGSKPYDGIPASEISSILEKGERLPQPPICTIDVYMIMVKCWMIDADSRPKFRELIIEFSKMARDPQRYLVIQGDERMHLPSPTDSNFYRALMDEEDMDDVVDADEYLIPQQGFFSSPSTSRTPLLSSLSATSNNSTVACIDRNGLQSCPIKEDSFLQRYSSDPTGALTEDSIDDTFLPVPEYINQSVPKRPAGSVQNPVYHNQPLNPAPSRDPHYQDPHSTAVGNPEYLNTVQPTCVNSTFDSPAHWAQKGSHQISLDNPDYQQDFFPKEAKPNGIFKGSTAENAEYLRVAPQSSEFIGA", "experiment": "Binding affinity to human partial length EGFR S752-I759del mutant expressed in bacterial expression system assessed as residual binding level at 1 uM by Kinomescan method relative to control"}, "[18]": {"molecular_target": "Mitogen-activated protein kinase kinase kinase 2 (Homo sapiens) (UniProt Q9Y2U5)", "sequence (Q9Y2U5 whole entry, the tested form may be a part)": "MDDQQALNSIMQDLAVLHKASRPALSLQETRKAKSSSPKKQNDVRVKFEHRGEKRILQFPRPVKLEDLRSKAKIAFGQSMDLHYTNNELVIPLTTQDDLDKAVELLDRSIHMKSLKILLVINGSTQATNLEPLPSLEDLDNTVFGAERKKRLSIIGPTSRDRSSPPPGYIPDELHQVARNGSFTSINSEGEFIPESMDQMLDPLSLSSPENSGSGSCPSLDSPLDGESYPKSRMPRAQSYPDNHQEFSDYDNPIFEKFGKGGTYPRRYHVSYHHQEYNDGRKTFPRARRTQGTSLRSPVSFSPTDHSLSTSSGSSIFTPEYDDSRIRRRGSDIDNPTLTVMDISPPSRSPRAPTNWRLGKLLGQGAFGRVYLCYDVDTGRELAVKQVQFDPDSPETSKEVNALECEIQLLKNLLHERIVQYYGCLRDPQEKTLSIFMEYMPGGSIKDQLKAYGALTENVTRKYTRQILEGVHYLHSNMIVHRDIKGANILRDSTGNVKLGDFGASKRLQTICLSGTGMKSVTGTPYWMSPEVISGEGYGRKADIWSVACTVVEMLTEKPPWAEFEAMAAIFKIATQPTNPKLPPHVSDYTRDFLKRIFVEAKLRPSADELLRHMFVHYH", "experiment": "Binding affinity to wild-type human partial length MAP3K2 (S315 to H619 residues) expressed in mammalian expression system assessed as residual binding level at 1 uM by Kinomescan method relative to control"}, "[19]": {"test_system": "Proto-oncogene tyrosine-protein kinase receptor Ret (Homo sapiens), P07949 [M918T]", "experiment": "Binding affinity to human partial length RET M918T mutant (E713 to D1014 residues) expressed in bacterial expression system assessed as residual binding level at 1 uM by Kinomescan method relative to control"}, "[20]": {"molecular_target": "ALK tyrosine kinase receptor (Homo sapiens) (UniProt Q9UM73)", "experiment": "Binding affinity to wild-type human partial length ALK (I1088 to E1409 residues) expressed in mammalian expression system assessed as residual binding level at 1 uM by Kinomescan method relative to control"}, "[21]": {"molecular_target": "Mitogen-activated protein kinase 9 (Homo sapiens) (UniProt P45984)", "experiment": "Binding affinity to wild-type human full length JNK2 (M1 to Q382 residues) expressed in mammalian expression system assessed as residual binding level at 1 uM by Kinomescan method relative to control"}, "[22]": {"molecular_target": "Testis-specific serine/threonine-protein kinase 1 (Homo sapiens) (UniProt Q9BXA7)", "experiment": "Binding affinity to wild-type human full length TSSK1B (M1 to Q367 residues) expressed in bacterial expression system assessed as residual binding level at 1 uM by Kinomescan method relative to control"}, "[23]": {"test_system": "Epidermal growth factor receptor (Homo sapiens), P00533 [UNDEFINED MUTATION]", "experiment": "Binding affinity to human partial length EGFR L747-E749del/A750P mutant expressed in bacterial expression system assessed as residual binding level at 1 uM by Kinomescan method relative to control"}, "[24]": {"molecular_target": "Serine/threonine-protein kinase N2 (Homo sapiens) (UniProt Q16513)", "experiment": "Binding affinity to wild-type human partial length PKN2 (E634 to C984 residues) expressed in bacterial expression system assessed as residual binding level at 1 uM by Kinomescan method relative to control"}, "[25]": {"molecular_target": "Serine/threonine-protein kinase MRCK alpha (Homo sapiens) (UniProt Q5VT25)", "experiment": "Binding affinity to wild-type human partial length MRCKA (L57 to V418 residues) expressed in bacterial expression system assessed as residual binding level at 1 uM by Kinomescan method relative to control"}}, "data": [{"smiles": "CC(C)Nc1sc(C(=O)c2ccc(Cl)s2)c(N)c1C#N", "values": [{"measurement": "Activity", "setting": "[1]", "result": 45, "unit": "%"}, {"measurement": "Activity", "setting": "[2]", "result": 77, "unit": "%"}, {"measurement": "Activity", "setting": "[3]", "result": 83, "unit": "%"}, {"measurement": "Activity", "setting": "[4]", "result": 91, "unit": "%"}, {"measurement": "Activity", "setting": "[5]", "result": 60, "unit": "%"}, {"measurement": "Activity", "setting": "[6]", "result": 91, "unit": "%"}, {"measurement": "Activity", "setting": "[7]", "result": 98, "unit": "%"}, {"measurement": "Activity", "setting": "[8]", "result": 77, "unit": "%"}, {"measurement": "Activity", "setting": "[9]", "result": 94, "unit": "%"}, {"measurement": "Activity", "setting": "[10]", "result": 74, "unit": "%"}, {"measurement": "Activity", "setting": "[11]", "result": 67, "unit": "%"}, {"measurement": "Activity", "setting": "[12]", "result": 37, "unit": "%"}, {"measurement": "Activity", "setting": "[13]", "result": 84, "unit": "%"}, {"measurement": "Activity", "setting": "[14]", "result": 99, "unit": "%"}, {"measurement": "Activity", "setting": "[15]", "result": 100, "unit": "%"}, {"measurement": "Activity", "setting": "[16]", "result": 100, "unit": "%"}, {"measurement": "Activity", "setting": "[17]", "result": 75, "unit": "%"}, {"measurement": "Activity", "setting": "[18]", "result": 98, "unit": "%"}, {"measurement": "Activity", "setting": "[19]", "result": 86, "unit": "%"}, {"measurement": "Activity", "setting": "[20]", "result": 100, "unit": "%"}, {"measurement": "Activity", "setting": "[21]", "result": 100, "unit": "%"}, {"measurement": "Activity", "setting": "[22]", "result": 100, "unit": "%"}, {"measurement": "Activity", "setting": "[23]", "result": 80, "unit": "%"}, {"measurement": "Activity", "setting": "[24]", "result": 73, "unit": "%"}, {"measurement": "Activity", "setting": "[25]", "result": 87, "unit": "%"}]}]}
